From patent US6737383B1, “Herbicidal oxadiazolidines” (priority 1999, dated 2004)

Key:
[1] = test system: cocklebur; assay: Test B pre/postemergence cocklebur; assay type: in vivo, Xanthium strumarium
Procedure, shortened: (§1)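 Herbicidal effect was estimated by eye on a ten-point control scale after plants spent twelve to sixteen days in a greenhouse following soil or foliar treatment. Foliar sprays targeted plants at one to four leaves; all doses were formulated in a non-phytotoxic solvent with surfactant.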

[2] = test system: corn; assay: Test B pre/postemergence corn; assay type: in vivo, Zea mays
Procedure, shortened: as §1

[3] = test system: crabgrass; assay: Test B pre/postemergence crabgrass; assay type: in vivo, Digitaria sanguinalis
Procedure, shortened: as §1

[4] = test system: giant foxtail; assay: Test B pre/postemergence giant foxtail; assay type: in vivo, Setaria faberii
Procedure, shortened: as §1

[5] = test system: morningglory; assay: Test B pre/postemergence morningglory; assay type: in vivo, Ipomoea hederacea
Procedure, shortened: as §1

[6] = test system: pigweed; assay: Test B pre/postemergence pigweed; assay type: in vivo, Amaranthus retroflexus
Procedure, shortened: as §1

[7] = test system: rape; assay: Test B pre/postemergence rape; assay type: in vivo, Brassica napus
Procedure, shortened: as §1

[8] = test system: soybean; assay: Test B pre/postemergence soybean; assay type: in vivo, Glycine max
Procedure, shortened: as §1

[9] = test system: sugar beet; assay: Test B pre/postemergence sugar beet; assay type: in vivo, Beta vulgaris
Procedure, shortened: as §1

[10] = test system: velvetleaf; assay: Test B pre/postemergence velvetleaf; assay type: in vivo, Abutilon theophrasti
Procedure, shortened: as §1

[11] = test system: wheat; assay: Test B pre/postemergence wheat; assay type: in vivo, Triticum aestivum
Procedure, shortened: as §1

[12] = test system: wild oat; assay: Test B pre/postemergence wild oat; assay type: in vivo, Avena fatua
Procedure, shortened: as §1

[13] = test system: purple nutsedge; assay: Test B pre/postemergence purple nutsedge; assay type: in vivo, Cyperus rotundus
Procedure, shortened: as §1

[14] = test system: rice; assay: Test B flood test rice; assay type: in vivo, Oryza sativa
Procedure, shortened: (§2)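 Each value is a visual injury score relative to controls, with 10 meaning complete control and 0 no effect. Evaluation took place twelve to sixteen days after the 2-leaf-stage plants were treated and kept in the greenhouse.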

[15] = test system: smallflower flatsedge; assay: Test B flood test smallflower flatsedge; assay type: in vivo, Cyperus difformis
Procedure, shortened: as §2

[16] = test system: duck salad; assay: Test B flood test duck salad; assay type: in vivo, Heteranthera limosa
Procedure, shortened: as §2

[17] = Postemergence, Rate 62 g/ha, scale 0 to 10, 0 is no effect, 10 is complete control
[18] = Postemergence, Rate 125 g/ha, scale of 0 to 10 where 0 is no effect and 10 is complete control
[19] = Postemergence, Rate 250 g/ha, scale of 0 to 10, 0 is no effect, 10 is complete control
[20] = Postemergence, Rate 500 g/ha, scale of 0 to 10 where 0 is no effect and 10 is complete control
[21] = Preemergence, Rate 62 g/ha, scale of 0 to 10 where 0 is no effect and 10 is complete control
[22] = Preemergence, Rate 125 g/ha, scale of 0 to 10 where 0 is no effect and 10 is complete control
[23] = Preemergence, Rate 250 g/ha, scale 0 to 10 (0 no effect, 10 complete control)
[24] = Preemergence, Rate 500 g/ha, scale of 0 to 10 where 0 is no effect and 10 is complete control
[25] = Rate 62 g/ha, flood test species, Pre-emergence, visual evaluation after twelve to sixteen days
[26] = Rate 125 g/ha, under heading Pre-emergence, flood test species, visual evaluation after twelve to sixteen days
[27] = Rate 250 g/ha, Pre-emergence (flood test species), scale 0 to 10, 0 is no effect, 10 is complete control
[28] = Rate 500 g/ha, Pre-emergence section of Table B, 0 to 10 scale (0 no effect, 10 complete control)

CC(C)N(C(=O)n1oc(=O)n(CC(=O)C2CCC2)c1=O)c1ccc(F)cc1 [Compound 640]
Plant response rating, Cocklebur [1, 17]: 0
Plant response rating, Cocklebur [1, 18]: 0
Cocklebur plant response rating [1, 19]: 2
Plant response rating, Cocklebur [1, 20]: 5
Cocklebur plant response rating [1, 21]: 0
Cocklebur plant response rating [1, 22]: 0
Plant response rating, Cocklebur [1, 23]: 0
Plant response rating, Cocklebur [1, 24]: 0
Plant response rating, Corn [2, 17]: 0
Plant response rating, Corn [2, 18]: 0
Corn plant response rating [2, 19]: 0
Plant response rating, Corn [2, 20]: 0
Corn plant response rating [2, 21]: 0
Corn plant response rating [2, 22]: 0
Plant response rating, Corn [2, 23]: 0
Plant response rating, Corn [2, 24]: 0
Plant response rating, Crabgrass [3, 17]: 0
Plant response rating, Crabgrass [3, 18]: 2
Crabgrass plant response rating [3, 19]: 3
Plant response rating, Crabgrass [3, 20]: 6
Crabgrass plant response rating [3, 21]: 3
Crabgrass plant response rating [3, 22]: 3
Plant response rating, Crabgrass [3, 23]: 9
Plant response rating, Crabgrass [3, 24]: 10
Plant response rating, Giant foxtail [4, 17]: 0
Plant response rating, Giant foxtail [4, 18]: 0
Giant foxtail plant response rating [4, 19]: 0
Plant response rating, Giant foxtail [4, 20]: 4
Giant foxtail plant response rating [4, 21]: 9
Giant foxtail plant response rating [4, 22]: 9
Plant response rating, Giant foxtail [4, 23]: 10
Plant response rating, Giant foxtail [4, 24]: 9
Plant response rating, Morningglory [5, 17]: 0
Plant response rating, Morningglory [5, 18]: 3
Morningglory plant response rating [5, 19]: 6
Plant response rating, Morningglory [5, 20]: 6
Morningglory plant response rating [5, 21]: 0
Morningglory plant response rating [5, 22]: 0
Plant response rating, Morningglory [5, 23]: 0
Plant response rating, Morningglory [5, 24]: 0
Plant response rating, Redroot pigweed [6, 17]: 0
Plant response rating, Redroot pigweed [6, 18]: 0
Redroot pigweed plant response rating [6, 19]: 4
Redroot pigweed plant response rating [6, 21]: 0
Redroot pigweed plant response rating [6, 22]: 0
Plant response rating, Redroot pigweed [6, 23]: 2
Plant response rating, Redroot pigweed [6, 24]: 7
Plant response rating, Rape [7, 17]: 0
Plant response rating, Rape [7, 18]: 0
Rape plant response rating [7, 19]: 0
Plant response rating, Rape [7, 20]: 0
Rape plant response rating [7, 21]: 0
Rape plant response rating [7, 22]: 0
Plant response rating, Rape [7, 23]: 3
Plant response rating, Rape [7, 24]: 6
Plant response rating, Soybean [8, 17]: 0
Plant response rating, Soybean [8, 18]: 0
Soybean plant response rating [8, 19]: 0
Soybean plant response rating [8, 21]: 0
Soybean plant response rating [8, 22]: 0
Plant response rating, Soybean [8, 23]: 0
Plant response rating, Soybean [8, 24]: 0
Plant response rating, Sugarbeets [9, 17]: 0
Plant response rating, Sugarbeets [9, 18]: 0
Sugarbeets plant response rating [9, 19]: 0
Sugarbeets plant response rating [9, 21]: 0
Sugarbeets plant response rating [9, 22]: 2
Plant response rating, Sugarbeets [9, 23]: 6
Plant response rating, Sugarbeets [9, 24]: 6
Plant response rating, Velvetleaf [10, 17]: 0
Plant response rating, Velvetleaf [10, 18]: 3
Velvetleaf plant response rating [10, 19]: 3
Velvetleaf plant response rating [10, 21]: 0
Velvetleaf plant response rating [10, 22]: 0
Plant response rating, Velvetleaf [10, 23]: 0
Plant response rating, Velvetleaf [10, 24]: 0
Plant response rating, Wheat [11, 17]: 0
Plant response rating, Wheat [11, 18]: 0
Wheat plant response rating [11, 19]: 0
Wheat plant response rating [11, 21]: 0
Wheat plant response rating [11, 22]: 0
Plant response rating, Wheat [11, 23]: 0
Plant response rating, Wheat [11, 24]: 2
Plant response rating, Wild oats [12, 17]: 0
Plant response rating, Wild oats [12, 18]: 0
Wild oats plant response rating [12, 19]: 0
Wild oats plant response rating [12, 21]: 0
Wild oats plant response rating [12, 22]: 0
Plant response rating, Wild oats [12, 23]: 3
Plant response rating, Wild oats [12, 24]: 6
Plant response rating, Nutsedge [13, 17]: 0
Plant response rating, Nutsedge [13, 18]: 0
Nutsedge plant response rating [13, 19]: 0
Nutsedge plant response rating [13, 21]: 0
Nutsedge plant response rating [13, 22]: 0
Plant response rating, Nutsedge [13, 24]: 0
Plant response rating, Rice (0 to 10 scale, 0 is no effect, 10 is complete control) [14, 25]: 0
Rice plant response rating (0 to 10 scale, 0 is no effect, 10 is complete control) [14, 26]: 0
Rice plant response rating [14, 27]: 0
Rice plant response rating [14, 28]: 0
Plant response rating, S. Flatsedge (0 to 10 scale, 0 is no effect, 10 is complete control) [15, 25]: 0
S. Flatsedge plant response rating (0 to 10 scale, 0 is no effect, 10 is complete control) [15, 26]: 0
S. Flatsedge plant response rating [15, 27]: 0
S. Flatsedge plant response rating [15, 28]: 0
Plant response rating, Ducksalad (0 to 10 scale, 0 is no effect, 10 is complete control) [16, 25]: 0
Ducksalad plant response rating (0 to 10 scale, 0 is no effect, 10 is complete control) [16, 26]: 0
Ducksalad plant response rating [16, 27]: 0
Ducksalad plant response rating [16, 28]: 0
